In US20230091047A1 (priority 2019, published 2023):
Like-named read-outs stand apart in the source and are kept apart here.

Key:
in vitro = type: cell-based; conditions: human, HepG2 or HepG2.117 cells, mean value
Method in brief: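 Luminescent ATP quantitation served as the viability endpoint following a 3- or 4-day incubation with test compounds.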

[1] = tested on: HBV (HepG2.117 cell line, inducibly HBV producing); test: Anti-HBV activity: intracellular HBV DNA by real-time PCR in HepG2.117 cells after 3 days of treatment; type: cell-based, hepatitis B virus
Method in brief: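 First, HBV replication is induced in HepG2.117 cells by doxycycline absence. Next, serially diluted compound is added for 3 days. Finally, intracellular HBV DNA is quantified by HBV-specific real-time PCR.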

[2] = ATPlite, 3-days incubation (not marked with *)
[3] = Hepatitis B virus, HepG2.117, 72 h, HepG2.117 cells, intracellular HBV DNA by real-time PCR, 3 days of treatment, mean value; read-out: EC50 (μM, mean value)
[4] = 3-days incubation (unmarked values), ATPlite viability
[5] = Hepatitis B virus, HepG2.117, 72 h, HepG2.117 cells, 3 days of treatment, intracellular HBV DNA by real-time PCR; mean value; read-out: EC50 (μM, mean value)

SMILES | CC50 at 3 days (in vitro; [2]) [µM] | EC50 [1, 3] [µM] | CC50 at 3 days (in vitro; [4]) [µM] | EC50 [1, 5] [µM]
CNC(=O)c1cc(-n2c(N[C@@H](C)c3ccc(F)cc3)nc3c(c2=O)C[C@@H](C)N(C(=O)c2ccc(Cl)c(Cl)c2)C3)nn1C [Compound C624] | > 50 | 0.06 |  | 
CCN(CC)c1nc2c(c(=O)n1-c1ccc(C(=O)NC)nc1)C[C@@H](C)N(C(=O)c1ccc(Cl)c(Cl)c1)C2 [Compound C625] | > 50 | 0.18 |  | 
CNC(=O)c1ncc(-n2c(O)nc3c(c2=O)C[C@@H](C)N(C(=O)c2ccc(Cl)c(Cl)c2)C3)n1C [Compound C626, R-5-(7-(3,4-dichlorobenzoyl)-2-hydroxy-6-methyl-4-oxo-5,6,7,8-tetrahydropyrido[3,4-d]pyrimidin-3(4H)-yl)-N,1-dimethyl-1H-imidazole-2-carboxamide] | > 50 | > 2.5 |  | 
CNc1[nH]nc2cc(-n3c(NC(C)C)nc4c(c3=O)C[C@@H](C)N(C(=O)c3ccc(Cl)c(Cl)c3)C4)ccc12 [Compound C627] | 33.6 | 0.12 |  | 
CNC(=O)c1ccc(-n2c(N[C@@H](C)c3ccc(C(F)(F)F)cc3)nc3c(c2=O)C[C@@H](C)N(C(=O)c2ccc(Cl)c(C(F)F)c2)C3)cc1 [Compound C628] | 23.2 | 0.05 |  | 
CNC(=O)c1cc(-n2c(N[C@@H](C)c3ccc(C(F)(F)F)cc3)nc3c(c2=O)C[C@@H](C)N(C(=O)c2ccc(Cl)c(Cl)c2)C3)[nH]n1 [Compound C630] | 20.7 | 0.11 |  | 
CNC(=O)[C@H]1CC[C@H](n2c(N[C@@H](C)c3ccc(OC(F)(F)F)cc3)nc3c(c2=O)C[C@@H](C)N(C(=O)c2ccc(Cl)c(Cl)c2)C3)CC1 [Compound C632] | 6.2 | 0.12 |  | 
CNC(=O)c1ccc(-n2c(NC(C)C)nc3c(c2=O)C[C@@H](C)N(C(=O)c2ccc(F)c(C(F)F)c2)C3)cc1 [Compound C634] | > 50 | 0.63 |  | 
CNC(=O)c1ccc(-n2c(NC(C)C)nc3c(c2=O)C[C@@H](C)N(C(=O)c2ccc(Cl)c(OC(F)(F)F)c2)C3)cc1 [Compound C635] | > 50 | 0.07 |  | 
CNC(=O)c1noc2cc(-n3c(NC(C)C)nc4c(c3=O)C[C@@H](C)N(C(=O)c3ccc(Cl)c(Cl)c3)C4)ccc12 [Compound C638] | > 50 | 0.14 |  | 
CNC(=O)[C@H]1CC[C@H](n2c(N[C@@H](C)c3ccc(C(F)(F)F)cc3)nc3c(c2=O)C[C@@H](C)N(C(=O)c2ccc(Cl)c(Cl)c2)C3)CC1 [Compound C640] | 5.2 | 0.07 |  | 
CNC(=O)c1ccc(-n2c(NC(C)C)nc3c(c2=O)C[C@@H](C)N(C(=O)c2ccc(F)c(C#N)c2)C3)cc1 [Compound C641] | > 50 | 1.99 |  | 
CNC(=O)c1ccc(-n2c(NC(C)C)nc3c(c2=O)C[C@@H](C)N(C(=O)c2ccc(Cl)c(C(F)(F)F)c2)C3)cc1Cl [Compound C642] | > 50 | 0.04 |  | 
CNC(=O)c1ccc(-n2c(NC(C)C)nc3c(c2=O)C[C@@H](C)N(C(=O)c2ccc(Cl)c(C(F)(F)F)c2)C3)c(OC)c1 [Compound C643] | > 50 | 0.05 |  | 
CNC(=O)[C@H]1CC[C@@H](n2c(N[C@@H](C)c3ccc(C(F)(F)F)cc3)nc3c(c2=O)C[C@@H](C)N(C(=O)c2ccc(Cl)c(Cl)c2)C3)CC1 [Compound C644] | 7.5 | 0.23 |  | 
CNC(=O)c1cc(-n2c(NC(C)C)nc3c(c2=O)C[C@@H](C)N(C(=O)c2ccc(Cl)c(C(F)(F)F)c2)C3)n(C)n1 [Compound C645] | > 50 | 0.04 |  | 
CNC(=O)c1cc(-n2c(NC(C)C)nc3c(c2=O)C[C@@H](C)N(C(=O)c2cccc(C(F)(F)F)c2)C3)n(C)n1 [Compound C646] | > 50 | 1.62 |  | 
CNC(=O)c1ccc(-n2c(NC(C)C)nc3c(c2=O)C[C@@H](C)N(C(=O)c2ccc(Cl)cc2C(F)(F)F)C3)cc1 [Compound C648] | > 50 | 0.22 |  | 
CNC(=O)c1ccc(-n2c(N[C@@H](C)c3ccc(F)cc3)nc3c(c2=O)C[C@@H](C)N(C(=O)c2ccc(Cl)c(C(F)(F)F)c2)C3)cc1 [Compound C651] | 8.8 | 0.05 |  | 
CNC(=O)c1cc(-n2c(O)nc3c(c2=O)C[C@@H](C)N(C(=O)c2ccc(Cl)c(C(F)(F)F)c2)C3)n(C)n1 [Compound C653] | > 50 | > 2.5 |  | 
CC(C)Nc1nc2c(c(=O)n1-c1ccc(C(=O)NC3CC3)cc1)C[C@@H](C)N(C(=O)c1ccc(Cl)c(C(F)(F)F)c1)C2 [Compound C654] | > 50 | 0.03 |  | 
CNC(=O)c1ccc(-n2c(N[C@@H](C)c3ccc(C(F)(F)F)cc3)nc3c(c2=O)C[C@@H](C)N(C(=O)c2ccc(Cl)c(Cl)c2)C3)nc1 [Compound C655] | 9.1 | 0.08 |  | 
CC(C)Nc1nc2c(c(=O)n1-c1ccnc(Cl)c1)C[C@@H](C)N(C(=O)c1ccc(Cl)c(Cl)c1)C2 [Compound C656] | > 50 | 0.26 |  | 

SMILES | CC50 at 3 days (in vitro; [2]) [µM] | EC50 [1, 3] [µM] | CC50 at 3 days (in vitro; [4]) [µM] | EC50 [1, 5] [µM]
CNC(=O)c1cc(-n2c(N[C@@H](C)c3ccc(F)cc3)nc3c(c2=O)C[C@@H](C)N(C(=O)c2ccc(Cl)c(C(F)(F)F)c2)C3)n(C)n1 [Compound C658] | 32.2 | 0.07 |  | 
CNC(=O)c1ccc(-n2c(NC(C)C)nc3c(c2=O)C[C@@H](C)N(C(=O)c2ccc(Cl)c(C(F)(F)F)c2)C3)c(C2CC2)c1 [Compound C661] | 25 | 0.07 |  | 
CNC(=O)c1ccc(-n2c(NC3(c4ccccc4)CC3)nc3c(c2=O)C[C@@H](C)N(C(=O)c2ccc(Cl)c(Cl)c2)C3)cc1 [Compound C662] | 30.5 | 0.16 |  | 
CNC(=O)c1cc(-n2c(NC(C)C)nc3c(c2=O)C[C@@H](C)N(C(=O)c2ccc(Cl)c(C(F)(F)F)c2)C3)nn1C [Compound C668] | > 50 | 0.01 |  | 
COC(=O)c1ccc(-n2c(NC(C)CCCCO)nc3c(c2=O)C[C@@H](C)N(C(=O)c2ccc(Cl)c(Cl)c2)C3)cc1OC (stereo partly drawn) [Compound C670] | > 50 | 0.37 |  | 
CNC(=O)c1ncc(-n2c(NC(C)C)nc3c(c2=O)C[C@@H](C)N(C(=O)c2ccc(Cl)c(C(F)(F)F)c2)C3)n1C [Compound C671] | > 50 | 0.05 |  | 
CNC(=O)c1cc(-n2c(NC(C)C)nc3c(c2=O)C[C@@H](C)N(C(=O)c2ccc(Cl)c(C(F)F)c2)C3)n(C)n1 [Compound C672] | > 50 | 0.09 |  | 
CNC(=O)c1ccc(-n2c(NC(C)C)nc3c(c2=O)C[C@@H](C)N(C(=O)c2cc(Cl)c(Cl)cn2)C3)cc1 [Compound C674] | > 50 | 2.04 |  | 
CNC(=O)c1ccc(-n2c(NC(C)C)nc3c(c2=O)C[C@@H](C)N(C(=O)c2cnc4ccccc4n2)C3)cc1 [Compound C675] | > 50 | 1.6 |  | 
CNC(=O)c1ccc(-n2c(NC(C)C)nc3c(c2=O)C[C@@H](C)N(C(=O)c2ccc(Cl)c(OC(F)F)c2)C3)cc1 [Compound C679] | > 50 | 0.21 |  | 
CC(C)Nc1nc2c(c(=O)n1-c1ccc(C(=O)NC3CC3)cc1)C[C@@H](C)N(C(=O)c1ccc(Cl)c(C(F)F)c1)C2 [Compound C681] | > 50 | 0.04 |  | 
CC(C)Nc1nc2c(c(=O)n1-c1ccc(C(=O)N3CCOCC3)cc1)C[C@@H](C)N(C(=O)c1ccc(Cl)c(C(F)F)c1)C2 [Compound C682] | > 50 | 0.12 |  | 
CNC(=O)c1ccc(-n2c(NC(C)C)nc3c(c2=O)C[C@@H](C)N(C(=O)c2ccc(Cl)c(C(F)(F)F)c2)C3)nn1 [Compound C684] | > 50 | 0.06 |  | 
CNC(=O)c1ccc(-n2c(NC(C)C)nc3c(c2=O)C[C@@H](C)N(C(=O)c2ccc(Cl)c(C#N)c2)C3)cc1 [Compound C686] | > 50 | 0.2 |  | 
CNC(=O)c1cc(-n2c(NC(C)C)nc3c(c2=O)C[C@@H](C)N(C(=O)c2ccc(Cl)c(C(F)(F)F)c2)C3)[nH]n1 [Compound C687] | > 50 | 0.02 |  | 
CNC(=O)c1cc(Cl)c(-n2c(NC(C)C)nc3c(c2=O)C[C@@H](C)N(C(=O)c2ccc(Cl)c(C(F)(F)F)c2)C3)c(Cl)c1 [Compound C688] | 29.3 | 0.04 |  | 
COc1ccc(CN(c2nc3c(c(=O)n2-c2ccc(Br)cc2)C[C@@H](C)N(C(=O)c2ccc(Cl)c(Cl)c2)C3)C(C)C)c(OC)c1 [Compound C691] | > 50 | 2.45 |  | 
CNC(=O)c1n[nH]c(-n2c(NC(C)C)nc3c(c2=O)C[C@@H](C)N(C(=O)c2ccc(Cl)c(Cl)c2)C3)c1Cl [Compound C692] | > 50 | 0.07 |  | 
CNC(=O)c1n[nH]c(-n2c(NC(C)C)nc3c(c2=O)C[C@@H](C)N(C(=O)c2ccc(Cl)c(Cl)c2)C3)c1C [Compound C693] | > 50 | 0.11 |  | 
CC(C)NC(=O)c1cnc(-n2c(NC(C)C)nc3c(c2=O)C[C@@H](C)N(C(=O)c2ccc(Cl)c(C(F)(F)F)c2)C3)cn1 [Compound C694] |  |  | > 50 | 0.05
CNC(=O)c1cnc(-n2c(NC(C)C)nc3c(c2=O)C[C@@H](C)N(C(=O)c2ccc(Cl)c(C(F)(F)F)c2)C3)cn1 [Compound C695] |  |  | > 50 | 0.04
CNC(=O)c1ccc(-n2c(NC(C)C)nc3c(c2=O)C[C@@H](C)N(C(=O)c2ccc(Cl)c(C(F)(F)F)c2)C3)nc1 [Compound C698] |  |  | > 50 | 0.02
